Legend:
brain β-amyloid plaques = assay: Blood brain barrier penetration and binding to Aβ deposits after peripheral administration (double staining with 6E10 and anti-human IgG); type: in vivo; details: 24 month arcAβ mice, 3 mg/kg i.p. weekly for 2 months; 6E10 and anti-human IgG double staining
Method: ArcAβ mice were generated as described in the previous Examples on a hybrid background of C57B1/6 and DBA2. The test group was backcrossed once to C57B1/6. Mice were kept under standard housing conditions on a reversed 12 h:12 h light/dark cycle and had free access to food and water. The treatment groups were balanced for age and gender.
Recombinant human anti-Aβ antibody NI-101.10 was produced in stably transfected 293 HEK cells and purified using standard Protein A column purification. Control antibody Humira (Adalimumab, Abbott, Switzerland) was dissolved in medium conditioned by 293 HEK cells and purified as described.
(§1) 24 month old arcAβ mice were injected weekly i.p. with recombinant human NI-101.10 or Humira control antibody (3 mg/kg body weight) over a time period of 2 months (8 injections). The allocation of mice to the individual groups was: n=[…] and 4 wt for the NI-101.10 treatment groups; n=[…] and 6 wt for the control antibody treatment groups.
Mice were anesthetized (10 ul/g bw ketamin/xylaxine) and perfused transcardially with PBS. One brain hemisphere was dissected into cortex, hippocampus and cerebellum and immediately frozen on dry-ice for further biochemical analysis. The other hemisphere was fixed in 4% paraformaldehyde and embedded in paraffin. 5 μm sagittal sections were cut with a Leica RM 2135 microtome (Bannockburn, Ill.). […]

arcAβ mice = assay: fMRI vascular reactivity to acetazolamide (cerebral blood volume) after passive immunization; type: in vivo; details: transgenic (tg) arcAβ mice after 2 months antibody treatment
Method: as §1
ArcAβ mice and their wildtype littermates were measured before (n=3 tg and 3 wt) or after the antibody treatment (n=5 tg NI-101.10, 4 tg Humira, […], 6 wt Humira). Mice were anesthetized with Isofluran, intubated and artificially ventilated during the MR experiment. The mice were placed on a water-heated cradle and all agents were injected via cannula into the tail vein. Experiments were performed on a 4.7 Tesla Pharmascan 47/16 (Bruker BioSpin GmbH, Germany). Scan parameters of the RARE sequence (Hennig et al., Magn. Reson. Med. 3 (1986), 823-833) were set as followed: spatial resolution: 156×156×700 μm^3, temporal resolution: 40 s, repetition time: 2500 ms, echo time (eff. TE): 80.2 ms, field of view (FOV): 2×1.3 cm^2, RARE factor: 32, matrix dimension: 128×128, slice thickness: 0.7 mm, inter-slice distance: 1.2 mm, number of averages: 4, number of slices: 5. fMRI measurement comprised 3 phases: 8 baseline images (S pre) were acquired as reference for the determination of the relative cerebral blood volume (CBVrel) changes. […]

binding of human antibody to Aβ deposits in brain sections (brain β-amyloid plaques): No such binding
Substance: Adalimumab [Humira]
mean ACBV % (integrated, after acetazolamide 30 mg/kg) (arcAβ mice): 500%

Source: patent US8022268B2, “Transgenic animal model for alzheimer's disease” (The University of Zurich, priority 2007, dated 2011)
